Measurements reported in patent US20240218022A1, “ANTI-VISTA MACROCYCLIC PEPTIDES AND COMPOSITIONS” (BRISTOL-MYERS SQUIBB COMPANY, priority 2022, published 2024).
Where two headings read alike, the source gives them in different places. One block for each compound: values may come before it. Positions of bridges follow the written chain, without caps; N, C: chain ends. Non-standard residues stand in square brackets, D forms with d. Residues, ends and D or L forms follow the SMILES beside them. ξ: configuration not given here. *: point of attachment. Phe(4-CF3) = N[C@@H](Cc1ccc(C(F)(F)F)cc1)C(=O)O; Phe(3-Me) = Cc1cccc(C[C@H](N)C(=O)O)c1; 2Nal = N[C@@H](Cc1ccc2ccccc2c1)C(=O)O; Cit = NC(=O)NCCC[C@H](N)C(=O)O; Ile(3ξ) = CCC(C)[C@H](N)C(=O)O; Ahp(2) = CCCCC[C@H](N)C(=O)O; NMeNle = CCCC[C@H](NC)C(=O)O; Tle = CC(C)(C)[C@H](N)C(=O)O; NHexGly = CCCCCCNCC(=O)O; Nle = CCCC[C@H](N)C(=O)O; Orn = NCCC[C@H](N)C(=O)O; Aun = NCCCCCCCCCCC(=O)O; Abu = CC[C@H](N)C(=O)O; ξD = NC(CC(=O)O)C(=O)O; AEEA = NCCOCCOCC(=O)O; ξS = NC(CO)C(=O)O; Allyl = C=CC*

Target: T1, mouse VISTA (mVISTA) (Mus musculus, UniProt Q9D659)
T1 construct: expressed in transfected cells; host or cells: Human embryonic kidney 293T cells
T1 sequence (Q9D659 33-308): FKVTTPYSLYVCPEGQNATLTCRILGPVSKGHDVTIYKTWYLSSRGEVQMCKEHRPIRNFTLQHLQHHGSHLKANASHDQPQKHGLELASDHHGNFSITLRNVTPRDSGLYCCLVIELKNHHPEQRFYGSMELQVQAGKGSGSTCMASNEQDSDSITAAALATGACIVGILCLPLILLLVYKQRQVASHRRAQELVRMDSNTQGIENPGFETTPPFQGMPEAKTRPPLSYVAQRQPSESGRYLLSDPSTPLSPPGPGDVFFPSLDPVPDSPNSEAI
Assay: Cell-Based Binding High-Content Assay For mVISTA (HC CBA mVISTA)
Summary of the method: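 Read-out: Alexa 647–streptavidin signal imaged on fixed, Hoechst-stained mVISTA-293T cells, with IC50 taken from a four-parameter logistic curve. Compounds competed with 2 nM biotinylated peptide for 30 min at room temperature, tested under both no-wash and wash (1 h compound, media exchange, 1 h) formats.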

[1] = cell-based binding high-content assay, mVISTA, read-out: HC CBA miPr ISTA IC50
[2] = 293T cells expressing mouse VISTA, competition with biotinylated peptide (2 nM), read-out: HC CBA mVISTA IC50

IC50 [1]: 0.0255 µM
Structure (SMILES): CCCCCCN1CC(=O)N[C@@H](Cc2ccc(O)cc2)C(=O)N[C@@H](CCCCC)C(=O)NCC(=O)N[C@@H](CCCNC(=N)N)C(=O)N[C@@H](CC(C)C)C(=O)N[C@@H](CCCCC)C(=O)N2CCC[C@H]2C(=O)N[C@@H](C(C)C)C(=O)N[C@@H](CO)C(=O)N[C@H](C(=O)NCC(=O)NCCOCCOCC(=O)N[C@@H](CC(=O)O)C(=O)NCCOCCOCC(=O)NCCCCCCCCCCC(=O)O)CSCC(=O)N[C@@H](Cc2ccccc2)C(=O)N[C@@H](Cc2ccc(O)cc2)C(=O)N[C@@H](CC(=O)O)C1=O [compound 2013] ({CH2CO}-FYD[NHexGly]Y[Ahp(2)]GRL[Ahp(2)]PVSCG[AEEA]D[AEEA][Aun]-OH; thioether N-14)

IC50 [2]: 0.0079 µM
Structure (SMILES): CCCCCCN1CC(=O)N[C@@H](Cc2ccc(O)cc2)C(=O)N[C@@H](CCCC)C(=O)N[C@@H](CC(N)=O)C(=O)N[C@@H](CCCNC(N)=O)C(=O)N[C@@H](CC(C)C)C(=O)N[C@@H](CCCCC)C(=O)N2CCC[C@H]2C(=O)N[C@@H](C(C)C)C(=O)N[C@@H](CC(=O)O)C(=O)N[C@H](C(=O)NCC(=O)O)CSCC(=O)N[C@@H](Cc2ccccc2)C(=O)N[C@@H](Cc2ccc(O)cc2)C(=O)N[C@@H](CC(=O)O)C1=O [Example 1019] ({CH2CO}-FYD[NHexGly]Y[Nle]N[Cit]L[Ahp(2)]PVDCG-OH; thioether N-14)

IC50 (cell-based binding high-content assay, mVISTA, the 15th table, read-out: HC CBA mVISTA IC50): 0.02 µM
Structure (SMILES): CCCCCCN1CC(=O)N[C@@H](Cc2ccc(O)cc2)C(=O)N[C@@H](CC(C)C)C(=O)NCC(=O)N[C@@H](CCCNC(=N)N)C(=O)N[C@@H](Cc2ccc(O)cc2)C(=O)N[C@@H](CCCCC)C(=O)N2CCC[C@H]2C(=O)N[C@@H](C(C)C)C(=O)N[C@@H](CC(=O)O)C(=O)N[C@H](C(=O)NCC(=O)O)CSCC(=O)N[C@@H](Cc2ccc3ccccc3c2)C(=O)N[C@@H](Cc2c[nH]c3ccccc23)C(=O)N[C@@H](CC(=O)O)C1=O [compound 1263] ({CH2CO}-[2Nal]WD[NHexGly]YLGRY[Ahp(2)]PVDCG-OH; thioether N-14)

IC50 [1]: 0.0204 µM
Structure (SMILES): CCCCCCN1CC(=O)N[C@@H](Cc2ccc(O)cc2)C(=O)N[C@@H](CCCC)C(=O)N[C@@H](CC(=O)O)C(=O)N[C@@H](CCCNC(N)=O)C(=O)N[C@@H](CC(C)C)C(=O)N[C@@H](CCCCC)C(=O)N2CCC[C@H]2C(=O)N[C@@H](C(C)C)C(=O)N[C@@H](CC(N)=O)C(=O)N[C@H](C(=O)NCC(=O)NCCOCCOCC(=O)N[C@@H](CC(=O)O)C(=O)NCCOCCOCC(=O)NCCCCCCCCCCC(=O)O)CSCC(=O)N[C@@H](Cc2ccccc2)C(=O)N[C@@H](Cc2ccc(O)cc2)C(=O)N[C@@H](CC(=O)O)C1=O [compound 2018] ({CH2CO}-FYD[NHexGly]Y[Nle]D[Cit]L[Ahp(2)]PVNCG[AEEA]D[AEEA][Aun]-OH; thioether N-14)

IC50 [2]: 0.0369 µM
Structure (SMILES): CCCCCCN1CC(=O)N[C@@H](Cc2ccc(O)cc2)C(=O)N[C@@H](C(C)CC)C(=O)NCC(=O)N[C@@H](CCCNC(=N)N)C(=O)N[C@@H](CC(C)C)C(=O)N[C@@H](CCCCC)C(=O)N2CCC[C@H]2C(=O)N[C@@H](C(C)C)C(=O)N[C@@H](CO)C(=O)N[C@H](C(=O)NCC(N)=O)CSCC(=O)N[C@@H](Cc2ccccc2)C(=O)N[C@@H](Cc2ccc(O)cc2)C(=O)N[C@@H](CC(=O)O)C1=O (some centres unmarked) [Example 1055] ({CH2CO}-FYD[NHexGly]Y[Ile(3ξ)]GRL[Ahp(2)]PVSCG-NH2; thioether N-14)

IC50 (read-out: HC CBA mVISTA IC50): 0.0383 µM
Structure (SMILES): CCCCCCN1CC(=O)N[C@@H](Cc2ccc(O)cc2)C(=O)N[C@@H](CCCC)C(=O)N[C@@H](CC(=O)O)C(=O)N[C@@H](CCCNC(=N)N)C(=O)N(C)[C@@H](CCCC)C(=O)N[C@@H](CCCCC)C(=O)N2CCC[C@H]2C(=O)N[C@@H](C(C)(C)C)C(=O)N[C@@H](CC(=O)O)C(=O)N[C@H](C(=O)NCC(N)=O)CSCC(=O)N[C@@H](Cc2ccccc2)C(=O)N[C@@H](Cc2c[nH]c3ccccc23)C(=O)N[C@@H](CC(=O)O)C1=O [Example 1392] ({CH2CO}-FWD[NHexGly]Y[Nle]DR[NMeNle][Ahp(2)]P[Tle]DCG-NH2; thioether N-14)

Structure (SMILES): C=CCOc1ccc(C[C@@H]2NC(=O)CSC[C@@H](C(=O)NCC(N)=O)NC(=O)[C@H](CO)NC(=O)[C@H](C(C)(C)C)NC(=O)[C@@H]3CCCN3C(=O)[C@H](CCCCC)NC(=O)[C@H](CCCC)N(C)C(=O)[C@H](CCCNC(=N)N)NC(=O)[C@H](CC(N)=O)NC(=O)[C@H](CC(C)C)NC(=O)[C@H](Cc3ccc(O)cc3)NC(=O)CN(CCCCCC)C(=O)[C@H](CC(=O)O)NC(=O)[C@H](Cc3ccc(O)cc3)NC2=O)cc1 [compound 1223] ({CH2CO}-Y(Allyl)YD[NHexGly]YLNR[NMeNle][Ahp(2)]P[Tle]SCG-NH2; thioether N-14)
IC50 (read-out: HC CBA mVISTA IC50): 0.0181 µM

IC50 (cell-based binding high-content assay, mVISTA, the 16th table, read-out: HC CBA mVISTA IC50): 0.0143 µM
Structure (SMILES): CCCCCCN1CC(=O)N[C@@H](Cc2ccc(O)cc2)C(=O)N[C@@H](CCCCC)C(=O)NCC(=O)N[C@@H](CCCNC(=N)N)C(=O)N[C@@H](CC(C)C)C(=O)N[C@@H](CCCCC)C(=O)N2CCC[C@H]2C(=O)N[C@@H](C(C)C)C(=O)N[C@@H](CO)C(=O)N[C@H](C(=O)NCC(N)=O)CSCC(=O)N[C@@H](Cc2ccc3ccccc3c2)C(=O)N[C@@H](Cc2ccc(O)cc2)C(=O)N[C@@H](CC(=O)O)C1=O [Ex 1273] ({CH2CO}-[2Nal]YD[NHexGly]Y[Ahp(2)]GRL[Ahp(2)]PVSCG-NH2; thioether N-14)

IC50 (read-out: HC CBA mVISTA IC50): 0.0061 µM
Structure (SMILES): CCCCCCN1CC(=O)N[C@@H](Cc2ccc(O)cc2)C(=O)N[C@@H](CCCCC)C(=O)N[C@@H](CC(N)=O)C(=O)N[C@@H](CCCNC(=N)N)C(=O)N(C)[C@@H](CCCC)C(=O)N[C@@H](CCCCC)C(=O)N2CCC[C@H]2C(=O)N[C@@H](C(C)C)C(=O)N[C@@H](C(C)C)C(=O)N[C@H](C(=O)NC(CO)C(=O)O)CSCC(=O)N[C@@H](Cc2ccccc2)C(=O)N[C@@H](Cc2cccc(C)c2)C(=O)N[C@@H](CC(=O)O)C1=O (some centres unmarked) [compound 1346] ({CH2CO}-F[Phe(3-Me)]D[NHexGly]Y[Ahp(2)]NR[NMeNle][Ahp(2)]PVVC[ξS]-OH; thioether N-14)

IC50 (read-out: HC CBA mVISTA IC50): 0.0287 µM
Structure (SMILES): CCCCCCN1CC(=O)N[C@@H](Cc2ccc(O)cc2)C(=O)N[C@@H](CCCC)C(=O)N[C@@H](CC(=O)O)C(=O)N[C@@H](CCCNC(=N)N)C(=O)N[C@@H](CC(C)C)C(=O)N[C@@H](CCCCC)C(=O)N2CCC[C@H]2C(=O)N[C@@H](C(C)C)C(=O)N[C@@H](CO)C(=O)N[C@H](C(=O)NCC(=O)O)CSCC(=O)N[C@@H](Cc2ccccc2)C(=O)N[C@@H](Cc2c[nH]c3ccccc23)C(=O)N[C@@H](CC(=O)O)C1=O [Example 1356] ({CH2CO}-FWD[NHexGly]Y[Nle]DRL[Ahp(2)]PVSCG-OH; thioether N-14)

IC50 (the 19th table, scaffold drawing 22, read-out: HC CBA mVISTA IC50): 0.0106 µM
Structure (SMILES): CCCCCCN1CC(=O)N[C@@H](Cc2ccc(O)cc2)C(=O)N[C@@H](CCCC)C(=O)N[C@@H](CC(=O)O)C(=O)N[C@@H](CCCN)C(=O)N[C@@H](CC(C)C)C(=O)N[C@@H](CCCCC)C(=O)N2CCC[C@H]2C(=O)N[C@@H](C(C)C)C(=O)N[C@@H](CC(=O)O)C(=O)N[C@H](C(=O)N[C@@H](CO)C(N)=O)CSCC(=O)N[C@@H](Cc2cccc(C)c2)C(=O)N[C@@H](Cc2ccc(O)cc2)C(=O)N[C@@H](CC(=O)O)C1=O [compound 1436] ({CH2CO}-[Phe(3-Me)]YD[NHexGly]Y[Nle]D[Orn]L[Ahp(2)]PVDCS-NH2; thioether N-14)

IC50 (read-out: HC CBA mVISTA IC50): 0.0178 µM
Structure (SMILES): CCCCCCN1CC(=O)N[C@@H](Cc2ccc(O)cc2)C(=O)N[C@@H](CCCC)C(=O)N[C@@H](CC(=O)O)C(=O)N[C@@H](CCCN)C(=O)N(C)[C@@H](CCCC)C(=O)N[C@@H](CCCCC)C(=O)N2CCC[C@H]2C(=O)N[C@@H](C(C)C)C(=O)N[C@@H](CC(=O)O)C(=O)N[C@H](C(=O)NC(CC(=O)O)C(N)=O)CSCC(=O)N[C@@H](Cc2ccccc2)C(=O)N[C@@H](Cc2cccc(C)c2)C(=O)N[C@@H](CC(=O)O)C1=O (some centres unmarked) [compound 1343] ({CH2CO}-F[Phe(3-Me)]D[NHexGly]Y[Nle]D[Orn][NMeNle][Ahp(2)]PVDC[ξD]-NH2; thioether N-14)

IC50 (read-out: HC CBA mVISTA IC50): 0.0254 µM
Structure (SMILES): CCCCCCN1CC(=O)N[C@@H](Cc2ccc(O)cc2)C(=O)N[C@@H](CC)C(=O)NCC(=O)N[C@@H](CCCNC(=N)N)C(=O)N[C@@H](CC(C)C)C(=O)N[C@@H](CCCCC)C(=O)N2CCC[C@H]2C(=O)N[C@@H](C(C)C)C(=O)N2CCC[C@H]2C(=O)N[C@H](C(=O)NCC(=O)O)CSCC(=O)N[C@@H](Cc2ccccc2)C(=O)N[C@@H](Cc2ccc(O)cc2)C(=O)N[C@@H](CC(=O)O)C1=O [compound 1123] ({CH2CO}-FYD[NHexGly]Y[Abu]GRL[Ahp(2)]PVPCG-OH; thioether N-14)

IC50 (the 20th table, scaffold drawing 23, read-out: HC CBA mVISTA IC50): 0.0087 µM
Structure (SMILES): CCCCCCN1CC(=O)N[C@@H](Cc2ccc(O)cc2)C(=O)N[C@@H](CC(C)C)C(=O)N[C@@H](CC(N)=O)C(=O)N[C@@H](CCCNC(=N)N)C(=O)N[C@@H](CC(C)C)C(=O)N[C@@H](CCCCC)C(=O)N2CCC[C@H]2C(=O)N[C@@H](C(C)C)C(=O)N[C@@H](C(C)C)C(=O)N[C@H](C(=O)NCC(=O)O)CSCC(=O)N[C@@H](Cc2ccc(C(F)(F)F)cc2)C(=O)N[C@@H](Cc2c[nH]c3ccccc23)C(=O)N[C@@H](CC(=O)O)C1=O [compound 1460] ({CH2CO}-[Phe(4-CF3)]WD[NHexGly]YLNRL[Ahp(2)]PVVCG-OH; thioether N-14)
